# Literature values, collected in patent US20040142914A1, “Extended transdermal contraceptive regimens” (priority 2002, published 2004).
# Conditions: humans
structure (smiles),measurement,value
C#C[C@]1(OC(C)=O)CC[C@H]2[C@@H]3CCC4=CC(=NO)CC[C@@H]4[C@H]3CC[C@@]21CC (mixture of isomers) [norgestimate],share of norgestimate converted to norelgestromin in vivo,≥ 80%
